The ED50 is the dose at which the effect has come halfway, by size or by number of responders.

The text below walks through data of ChEMBL document CHEMBL1121778, “5,7-Dihydroxy-2-aminotetralin derivatives: synthesis and assessment of dopaminergic and adrenergic actions” (1981).

Assay [1] relates to Felis catus. Put plainly: change in heart rate(beats/min) of the cat on intravenous administration of 0.38 umol/kg of the compound. It counts as functional.
Assay [2] relates to Felis catus. As to the kind of experiment: Compound was tested for the inhibition of cat cardioaccelerator nerve stimulation; Inactive at 2 umol/kg iv. The format is functional, organism-based.
The subject of assay [3] is Felis catus. Put plainly: change in heart rate(beats/min) of the cat on intravenous administration 0.038 umol/kg of the compound. It counts as functional.
For assay [4], the system named is Felis catus. Put plainly: change in heart rate(beats/min) of the cat on intravenous administration of 0.115 umol/kg of the compound. The format is functional.
Assay [5] concerns Felis catus. Put plainly: %change in arterial pressure of the cat on intravenous administration of 0.038 umol/kg the compound. The format is functional, Artery.
The subject of assay [6] is Felis catus. As to the kind of experiment: %change in arterial pressure of the cat on intravenous administration 0.115 umol/kg of the compound. The format is functional, Artery.
Assay [7] deals with Canis familiaris. As to the kind of experiment: Compound was tested for emesis(active expulsion of fluid or solid matter)in dog at 2 umol/kg sc; No emesis produced. The format is functional, organism-based. The following applies: Canis lupus familiaris.
Assay [8] relates to Canis familiaris. As to the kind of experiment: Compound was tested for increase in renal blood flow in dog anesthetized with sodium pentobarbitol (30 mg/kg, iv) and systemic blood pressure and heart rate were recorded; Inactive at 2 umol/kg. The format is functional, organism-based. The following applies: Canis lupus familiaris.
The subject of assay [9] is Felis catus. As to the kind of experiment: %change in arterial pressure of the cat on intravenous administration of 0.38 umol/kg of the compound. It counts as functional, Artery.
The subject of assay [10] is Felis catus. Put plainly: Percentage change in arterial pressure of the cat on intravenous administration at 0.008 umol/kg. It counts as functional, Artery.
Assay [11] has as its system Felis catus. Put plainly: Percentage change in arterial pressure of the cat on intravenous administration of 0.032 umol/kg of the compound. The format is functional, Artery.
Assay [12] is filed under the species Felis catus. As to the kind of experiment: Potency relative to apomorphine. It counts as functional.
In assay [13] the test system is Felis catus. Put plainly: Percentage change in arterial pressure of the cat on intravenous administration of 0.016 umol/kg of the compound. The format is functional, Artery.
For assay [14], the species on record is Felis catus. Put plainly: Compound was tested for the inhibition of cat cardioaccelerator nerve stimulation,. The format is functional.
Assay [15] relates to Felis catus. Put plainly: Change in heart rate(beats/min) of the cat on intravenous administration of 0.016 umol/kg of the compound. The format is functional.
For assay [16], the species on record is Canis familiaris. Put plainly: Compound was tested for emesis(active expulsion of fluid or solid matter)in dog, activity expressed as ED50. The following applies: Canis lupus familiaris. The format is functional.
In assay [17] the test system is Felis catus. Put plainly: Change in heart rate(beats/min) of the cat on intravenous administration at 0.008 umol/kg. It counts as functional.
Assay [18] deals with Felis catus. Put plainly: Change in heart rate(beats/min) of the cat on intravenous administration of 1.09 umol/kg of the compound. The format is functional.
For assay [19], the system named is Felis catus. As to the kind of experiment: Percentage change in arterial pressure of the cat on intravenous administration of 1.09 umol/kg of uM/kg of the compound. It counts as functional, Artery.
Assay [20] relates to Felis catus. As to the kind of experiment: Percentage change in arterial pressure of the cat on intravenous administration of 0.36 umol/kg of the compound. It counts as functional, Artery.
Assay [21] has as its system Felis catus. As to the kind of experiment: Change in heart rate(beats/min) of the cat on intravenous administration of 0.36 umol/kg the compound. It counts as functional.
For assay [22], the system named is Felis catus. As to the kind of experiment: Percentage change in arterial pressure of the cat on intravenous administration of 0.1 uM/kg of the compound. The format is functional, Artery.
The subject of assay [23] is Felis catus. As to the kind of experiment: Percentage change in arterial pressure of the cat on intravenous administration of 0.01 umol/kg of the compound. It counts as functional, Artery.
The species entered for assay [24] is Felis catus. Put plainly: Compound was tested for the inhibition of cat cardioaccelerator nerve stimulation. The format is functional.
The test system of assay [25] is Felis catus. Put plainly: Percentage change in arterial pressure of the cat on intravenous administration of 0.03 umol/kg of the compound. It counts as functional, Artery.
The subject of assay [26] is Felis catus. Put plainly: Change in heart rate(beats/min) of the cat on intravenous administration of 0.01 umol/kg of the compound. The format is functional.
The test system of assay [27] is Felis catus. Put plainly: Change in heart rate(beats/min) of the cat on intravenous administration of 0.03 umol/kg of the compound. It counts as functional.
Assay [28] relates to Felis catus. Put plainly: Change in heart rate(beats/min) of the cat on intravenous administration of 0.1 uM/kg of the compound. It counts as functional.
For assay [29], the system named is Felis catus. As to the kind of experiment: Change in heart rate(beats/min) of the cat on intravenous administration of 0.033 umol/kg of the compound. The format is functional.
The test system of assay [30] is Felis catus. Put plainly: Percentage change in arterial pressure of the cat on intravenous administration of 0.10 umol/kg of the compound. The format is functional, Artery.
In assay [31] the test system is Felis catus. Put plainly: Percentage change in arterial pressure of the cat on intravenous administration of 0.033 umol/kg of the compound. It counts as functional, Artery.
For assay [32], the system named is Felis catus. Put plainly: Change in heart rate(beats/min) of the cat on intravenous administration of 0.10 umol/kg of the compound. The format is functional.
The species entered for assay [33] is Canis familiaris. As to the kind of experiment: Compound was tested for emesis(active expulsion of fluid or solid matter)in dog. It counts as functional. The following applies: Canis lupus familiaris.
Assay [34] has as its system Felis catus. Put plainly: Change in heart rate(beats/min) of the cat on intravenous administration of 0.003 umol/kg of the compound. It counts as functional.
The test system of assay [35] is Felis catus. Put plainly: Percentage change in arterial pressure of the cat on intravenous administration of 0.003 umol/kg of the compound. It counts as functional, Artery.
Assay [36] has as its system Felis catus. As to the kind of experiment: Change in heart rate(beats/min) of the cat on intravenous administration of 0.009 umol/kg of the compound. It counts as functional.
Assay [37] relates to Felis catus. As to the kind of experiment: Percentage change in arterial pressure of the cat on intravenous administration of 0.009 umol/kg of the compound. The format is functional, Artery.
The subject of assay [38] is Felis catus. As to the kind of experiment: Percentage change in arterial pressure of the cat on intravenous administration of 0.99 umol/kg of the compound. It counts as functional, Artery.
Assay [39] has as its system Felis catus. Put plainly: Change in heart rate(beats/min) of the cat on intravenous administration of 0.99 umol/kg of the compound. The format is functional.
Assay [40] has as its system Felis catus. As to the kind of experiment: Change in heart rate(beats/min) of the cat on intravenous administration of 0.11 umol/kg of the compound. It counts as functional.
Assay [41] has as its system Felis catus. As to the kind of experiment: Change in heart rate(beats/min) of the cat on intravenous administration of 0.33 umol/kg of the compound. The format is functional.
The test system of assay [42] is Felis catus. Put plainly: Compound was tested for the inhibition of cat cardioaccelerator nerve stimulation; […]. The format is functional, organism-based.
For assay [43], the system named is Felis catus. As to the kind of experiment: Percentage change in arterial pressure of the cat on intravenous administration of 0.33 umol/kg of the compound. The format is functional, Artery.
In assay [44] the test system is Felis catus. As to the kind of experiment: Percentage change in arterial pressure of the cat on intravenous administration of 0.11 umol/kg of the compound. The format is functional, Artery.
Assay [45] is filed under the species Felis catus. Put plainly: Compound was tested for the inhibition of cat cardioaccelerator nerve stimulation, activity expressed as ED50. It counts as functional.

The source made the active and inactive calls. No cut-off for these calls is given here.

For `Br.NC1CCc2c(O)cc(O)cc2C1` (centres undefined), the results for the Heart rate in the assay on Felis catus [1], with Felis catus [3] and in the assay with Felis catus [4] were 17.6 beats min-1, 0 beats min-1 and 3.6 beats min-1, respectively. Moreover, the ED50 entry in the assay with Felis catus [2] is “inactive”. Besides, the results for the Change with Felis catus [5], in the assay with Felis catus [6] and in the assay with Felis catus [9] were 19.7%, 21.6% and 30.5%, respectively. For the same molecule, the ED50 entry in the assay with Canis familiaris [7] was “No emesis produced”. In addition, the Increase result in the assay with Canis familiaris [8] is “inactive”.

As to `CN1CCc2cccc3c2[C@H]1Cc1ccc(O)c(O)c1-3` [APOMORPHINE], the Change with Felis catus [10] was -9.9%; with Felis catus [11], -18.2%; with Felis catus [13] it was -11.5%. The molecule further had a Relative potency in the assay filed under Felis catus [12] of 1. In addition, the median effective dose (ED50) in the assay listed under Felis catus [14] was determined as 0.022 µmol/kg; in the assay listed under Canis familiaris [16], 0.142 µmol/kg. Besides, the figures for the Heart rate with Felis catus [15] and in the assay with Felis catus [17] were -6.5 beats min-1 and -4.3 beats min-1, respectively.

Take `Br.CNC1CCc2c(O)cc(O)cc2C1` (centres undefined): the values for the Heart rate in the assay with Felis catus [18] and in the assay on Felis catus [21] were 44 beats min-1 and 26.7 beats min-1, respectively. Further, the Change with Felis catus [19] was determined as 84.2%; in the assay with Felis catus [20] it was 49.7%. Besides, the ED50 result in the assay with Felis catus [2] is “inactive”. Further, the ED50 result with Canis familiaris [7] was “No emesis produced”. The Increase entry with Canis familiaris [8] was “inactive”.

Take `Br.CN(C)C1CCc2c(O)cc(O)cc2C1` (centres undefined): the Change was 23.2% in the assay with Felis catus [22], 4.1% in the assay with Felis catus [23] and 8% in the assay on Felis catus [25]. In the assay listed under Felis catus [12], the Relative potency was 1.45. In the assay filed under Felis catus [24], this molecule displayed a 50% effective dose (ED50) of 0.021 µmol/kg. The values for the Heart rate in the assay on Felis catus [26], in the assay with Felis catus [27] and in the assay with Felis catus [28] were 0 beats min-1, 0.6 beats min-1 and 12.8 beats min-1, respectively.

On to `Br.CCNC1CCc2c(O)cc(O)cc2C1` (centres undefined), for which the Relative potency in the assay filed under Felis catus [12] was found to be 1.04. Also, the Change in the assay on Felis catus [23] is -6.3%; in the assay on Felis catus [30], -19.6%; in the assay with Felis catus [31] it was -18.5%. Moreover, the ED50 was determined as 0.04 µmol/kg in the assay listed under Felis catus [24] and 0.36 µmol/kg in the assay filed under Canis familiaris [33]. The Heart rate was -10.6 beats min-1 in the assay on Felis catus [29], -6.6 beats min-1 in the assay on Felis catus [26] and -6 beats min-1 with Felis catus [32]. In addition, the Increase result with Canis familiaris [8] is “inactive”.

In turn, `Br.CCN(CC)C1CCc2c(O)cc(O)cc2C1` (centres undefined) displayed a Relative potency in the assay listed under Felis catus [12] of 1.4. The Heart rate in the assay on Felis catus [34] is recorded as -2.1 beats min-1; in the assay with Felis catus [29], -25 beats min-1; in the assay on Felis catus [36] it was -23 beats min-1. Besides, the Change is on record as -8.7% in the assay on Felis catus [35], -25% with Felis catus [31] and -23% in the assay with Felis catus [37]. In the assay filed under Felis catus [24], this molecule displayed an ED50 of 0.024 µmol/kg. For the same molecule, the Increase result with Canis familiaris [8] is “inactive”.

On to `Br.CC(C)NC1CCc2c(O)cc(O)cc2C1` (centres undefined), for which the Change with Felis catus [38] came to 25.2%; in the assay with Felis catus [43] it was 19.7%; in the assay with Felis catus [44], 16.9%. In addition, the results for the Heart rate in the assay on Felis catus [39], in the assay on Felis catus [40] and with Felis catus [41] were 14.4 beats min-1, 3.2 beats min-1 and 7.7 beats min-1, respectively. Moreover, the ED50 entry with Felis catus [42] and in the assay on Canis familiaris [7] was “inactive” throughout. Moreover, the Increase result in the assay on Canis familiaris [8] was “inactive”.

In the assay filed under Felis catus [12], `Br.CCCN(CCC)C1CCc2c(O)cc(O)cc2C1` (centres undefined) returned a Relative potency of 0.95. Further, the Heart rate in the assay on Felis catus [34] is -3.6 beats min-1; in the assay with Felis catus [29], -5.6 beats min-1; in the assay with Felis catus [36], -4.8 beats min-1. Also, the Change with Felis catus [35] is reported as -12.2%; with Felis catus [31] it was -27.2%; with Felis catus [37] it was -17.2%. The Increase result with Canis familiaris [8] is “inactive”. This molecule yielded an ED50 in the assay filed under Felis catus [45] of 0.035 µmol/kg.
